Results from US12606528B2, “Methods and materials for inhibiting NF-kB activity” (University of Pittsburgh - Of the Commonwealth System of …, priority 2019, dated 2026).
Read-outs that look alike come from different tables or passages of the source.

Experiments:
TNF release = experiment: TNF assay: TNF release from LPS-stimulated human PBMCs (TNF ELISA); format: cell-based; settings: PBMC, read-out: IC50 (TNF assay)
Method: 25k THP1-NF-κB-LUC cells were dispensed into 384 well plate (per well). Cells were treated with compounds with various concentrations for 2 hours before addition of LPS (10 ng/mL) for 18 hours. Secreted luciferase activity were measured using quant-luc reagents (1 bag of luc reagent dilute to 40 mL, use 10 μL per well). Data were normalized to vehicle control and graphed. Compound IC50 towards inhibiting NF-κB were determined through Prism. Similarly, 10k human PBMCs cells were cultured in 384 well plate (per well). Cells were treated with compounds with various concentrations for 2 hours before addition of LPS (10 ng/ml) for 18 hours, and supernatants were collected and assayed for TNF ELISA. Compound IC50 towards inhibiting TNF release were determined through Prism. • Activity: “+”>10 μM, “++”>1 μM and <10 μM, “+++”>0.1 μM and <1 μM, “++++”<0.1 μM.

NF-κB = NF-κB assay: THP1-NF-κB-LUC cells, LPS-stimulated secreted luciferase; format: cell-based; settings: THP1-NF-κB-LUC cells, read-out: IC50 (NF-κB assay)
Method in brief: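 THP1-NF-κB-LUC cells (25k/well) were pretreated with compounds for 2 h, then stimulated with LPS (10 ng/mL) for 18 h. Secreted luciferase was measured and normalized to vehicle, and IC50 was fitted from the concentration series.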

[1] = LPS-stimulated human PBMCs, TNF ELISA
[2] = human PBMCs, compounds 2 hours before LPS (10 ng/ml) for 18 hours, supernatant TNF ELISA
[3] = compounds 2 hours before LPS (10 ng/mL) for 18 hours, secreted luciferase

Row | Structure (SMILES) | IC50 (TNF release; [1]) | IC50 (NF-κB; LPS-stimulated) | IC50 (TNF release; [2]) | IC50 (NF-κB; [3])
1 | Fc1ccc(-c2nc3ccc(-c4nnc[nH]4)cc3nc2C(F)(F)F)cc1 [BC19159] | > 10 µM | > 10000 nM |  | 
2 | O=c1c(S(=O)(=O)c2ccc(F)cc2)c[nH]c2ccc(Cl)cc12 [BC19160] |  |  | > 10 µM | > 10000 nM
3 | O=C1COc2cc(S(=O)(=O)Nc3ccccc3)c(Cl)cc2N1 [BC19161] |  |  | > 10 µM | 1000 to 10000 nM
4 | Cc1ccc(Cl)cc1NS(=O)(=O)c1cc2c(cc1Cl)NC(=O)CO2 [BC19162] |  |  | > 10 µM | > 10000 nM
5 | COc1ccc(NS(=O)(=O)c2cc3c(cc2Br)NC(=O)CO3)cc1Cl [BC19163] |  |  | > 10 µM | > 10000 nM
6 | O=C1COc2cc(S(=O)(=O)Nc3ccc(OC(F)(F)F)cc3)c(Cl)cc2N1 [BC19164] |  |  | > 10 µM | < 100 nM
7 | Cc1ccc(NS(=O)(=O)c2cc3c(cc2Cl)NC(=O)CO3)cc1Cl [BC19165] |  |  | > 10 µM | 100 to 1000 nM
8 | O=C1COc2cc(S(=O)(=O)Nc3ccc(F)cc3F)c(Br)cc2N1 [BC19166] |  |  | > 10 µM | < 100 nM
9 | CCc1cccc(NS(=O)(=O)c2cc3c(cc2Br)NC(=O)CO3)c1 [BC19167] |  |  | > 10 µM | 100 to 1000 nM
10 | O=C1COc2c(cc(Cl)cc2S(=O)(=O)Nc2ccccc2)N1 [BC19168] |  |  | > 10 µM | < 100 nM
11 | O=C1COc2c(cc(Cl)cc2S(=O)(=O)Nc2ccc(Cl)cc2)N1 [BC19169] |  |  | > 10 µM | < 100 nM
12 | Cc1ccc(Cl)cc1NS(=O)(=O)c1cc(Cl)cc2c1OCC(=O)N2 [BC19170] |  |  | > 10 µM | 1000 to 10000 nM
13 | COc1ccc(NS(=O)(=O)c2cc(Br)cc3c2OCC(=O)N3)cc1Cl [BC19171] |  |  | > 10 µM | < 100 nM
14 | O=C1COc2c(cc(Cl)cc2S(=O)(=O)Nc2ccc(OC(F)(F)F)cc2)N1 [BC19172] |  |  | > 10 µM | < 100 nM
15 | CCOc1ccc(NS(=O)(=O)c2cc(Br)cc3c2OCC(=O)N3)cc1 [BC19173] |  |  | > 10 µM | < 100 nM
16 | CC(C)c1ccc(NS(=O)(=O)c2cc(Cl)cc3c2OCC(=O)N3)cc1 [BC19174] |  |  | > 10 µM | < 100 nM
17 | COc1ccc(NS(=O)(=O)c2cc(Br)cc3c2OCC(=O)N3)cc1 [BC19175] |  |  | > 10 µM | < 100 nM
18 | Cc1ccc(NS(=O)(=O)c2cc(Cl)cc3c2OCC(=O)N3)cc1Cl [BC19176] |  |  | > 10 µM | < 100 nM
19 | O=C1COc2c(cc(Br)cc2S(=O)(=O)Nc2ccc(F)c(F)c2)N1 [BC19177] |  |  | > 10 µM | < 100 nM

Row | Structure (SMILES) | IC50 (TNF release; [1]) | IC50 (NF-κB; LPS-stimulated) | IC50 (TNF release; [2]) | IC50 (NF-κB; [3])
20 | O=C1COc2c(cc(Br)cc2S(=O)(=O)Nc2ccc(F)cc2F)N1 [BC19178] |  |  | 1 to 10 µM | < 100 nM
21 | CCc1ccc(NS(=O)(=O)c2cc(Br)cc3c2OCC(=O)N3)cc1 [BC19179] |  |  | > 10 µM | < 100 nM
22 | CCc1cccc(NS(=O)(=O)c2cc(Br)cc3c2OCC(=O)N3)c1 [BC19180] |  |  | > 10 µM | < 100 nM
23 | CN1CC(=O)Nc2ccc(S(=O)(=O)N3CCCC3)cc21 [BC19181] | > 10 µM | > 10000 nM |  | 
24 | CC(=O)N1c2cc(S(=O)(=O)N3CCCC3)ccc2NC(=O)C1C (stereo not shown) [BC19182] | > 10 µM | > 10000 nM |  | 
25 | CNC(=O)N1CC(=O)Nc2ccc(S(=O)(=O)N3CCCC3)cc21 [BC19183] | > 10 µM | > 10000 nM |  | 
26 | CC(C)CC(=O)N1c2cc(S(=O)(=O)N3CCCC3)ccc2NC(=O)C1C (stereo not shown) [BC19184] | > 10 µM | > 10000 nM |  | 
27 | CN1CCN(C(=O)c2ccc3nc(-c4ccc(F)cc4)c(-c4cccs4)nc3c2)CC1 [BC19185] | > 10 µM | < 100 nM |  | 
28 | Fc1ccc(-c2nc3cc(-c4nnn[nH]4)ccc3nc2-c2cccs2)cc1 [BC19186] | > 10 µM | 1000 to 10000 nM |  | 
29 | NC(=O)c1ccc2nc(-c3ccc(F)cc3)c(-c3cccs3)nc2c1 [BC19187] | > 10 µM | 100 to 1000 nM |  | 
30 | CNC(=O)c1ccc2nc(-c3ccc(F)cc3)c(-c3cccs3)nc2c1 [BC19188] | > 10 µM | 100 to 1000 nM |  | 
31 | C#CCNC(=O)c1ccc2nc(-c3ccc(F)cc3)c(-c3cccs3)nc2c1 [BC19189] | > 10 µM | 100 to 1000 nM |  | 
32 | Cc1nc(-c2ccc3nc(-c4ccc(F)cc4)c(-c4ccc(F)cc4)nc3c2)no1 [BC19190] | > 10 µM | 100 to 1000 nM |  | 
33 | CN1CCN(C(=O)c2ccc3nc(-c4cccs4)cnc3c2)CC1 [BC19191] | > 10 µM | > 10000 nM |  | 
34 | N#Cc1ccc2nc(-c3ccc(F)cc3)c(-c3ccc(F)cc3)nc2c1 [BC19192] | > 10 µM | 100 to 1000 nM |  | 
35 | Cc1noc(-c2ccc3nc(-c4ccc(F)cc4)c(-c4ccc(F)cc4)nc3c2)n1 [BC19193] | > 10 µM | 100 to 1000 nM |  | 
36 | N=C(NO)c1ccc2nc(-c3ccc(F)cc3)c(-c3ccc(F)cc3)nc2c1 [BC19194] | > 10 µM | < 100 nM |  | 
37 | CC(C)OC(=O)Nc1ccc2nc(-c3ccc(F)cc3)c(-c3ccc(F)cc3)nc2c1 [BC19195] | > 10 µM | 1000 to 10000 nM |  | 
38 | O=c1c(S(=O)(=O)c2ccc(F)c(F)c2)c[nH]c2c(Cl)ccc(F)c12 [BC19196] |  |  | > 10 µM | 100 to 1000 nM

Row | Structure (SMILES) | IC50 (TNF release; [1]) | IC50 (NF-κB; LPS-stimulated) | IC50 (TNF release; [2]) | IC50 (NF-κB; [3])
39 | Cc1ccc(F)c2c(=O)c(S(=O)(=O)c3ccc(F)c(F)c3)c[nH]c12 [BC19197] |  |  | > 10 µM | 100 to 1000 nM
40 | Cc1ccc(C)c2c(=O)c(S(=O)(=O)c3ccc(F)c(F)c3)c[nH]c12 [BC19198] |  |  | > 10 µM | 1000 to 10000 nM
41 | COc1ccc(Cl)c2c(=O)c(S(=O)(=O)c3ccc(F)c(F)c3)c[nH]c12 [BC19199] |  |  | > 10 µM | 100 to 1000 nM
42 | COc1ccc(C)c2c(=O)c(S(=O)(=O)c3ccc(F)c(F)c3)c[nH]c12 [BC19200] |  |  | > 10 µM | 1000 to 10000 nM
43 | O=c1c(S(=O)(=O)c2ccc(F)c(F)c2)c[nH]c2ccncc12 [BC19201] |  |  | > 10 µM | > 10000 nM
44 | COc1ccc2[nH]cc(S(=O)(=O)c3ccc(F)cc3)c(=O)c2n1 [BC19202] |  |  | > 10 µM | > 10000 nM
45 | O=S(=O)(c1ccccc1)c1cnn(-c2ccccc2)c1 [BC19204] | > 10 µM | > 10000 nM |  | 
46 | O=S(=O)(c1ccccc1)c1ccn(-c2ccccc2)n1 [BC19205] | > 10 µM | 1000 to 10000 nM |  | 
47 | CC1Oc2cc(S(=O)(=O)Nc3ccccc3)c(Cl)cc2NC1=O (stereo not shown) [BC19206] |  |  | > 10 µM | 1000 to 10000 nM
48 | CC(C)NS(=O)(=O)c1cc2c(cc1Cl)NC(=O)C(C)O2 (stereo not shown) [BC19207] |  |  | > 10 µM | > 10000 nM
49 | CC1Oc2cc(S(=O)(=O)N3CCCC3)c(Cl)cc2NC1=O (stereo not shown) [BC19208] |  |  | > 10 µM | > 10000 nM
50 | CCNS(=O)(=O)c1cc2c(cc1Cl)NC(=O)C(C)O2 (stereo not shown) [BC19209] |  |  | > 10 µM | 1000 to 10000 nM
51 | CCC1Oc2cc(S(=O)(=O)Nc3ccc(C(C)C)cc3)c(Cl)cc2NC1=O (stereo not shown) [BC19210] |  |  | > 10 µM | < 100 nM
52 | CCC1Oc2cc(S(=O)(=O)Nc3ccc(OC)cc3)c(Cl)cc2NC1=O (stereo not shown) [BC19211] |  |  | > 10 µM | 100 to 1000 nM
53 | CCC1Oc2cc(S(=O)(=O)Nc3ccc(C)c(F)c3)c(Cl)cc2NC1=O (stereo not shown) [BC19212] |  |  | > 10 µM | < 100 nM
54 | CCC1Oc2cc(S(=O)(=O)Nc3cccc(SC)c3)c(Cl)cc2NC1=O (stereo not shown) [BC19213] |  |  | > 10 µM | 100 to 1000 nM
55 | CCCNS(=O)(=O)c1cc2c(cc1Cl)NC(=O)C(CC)O2 (stereo not shown) [BC19214] |  |  | > 10 µM | > 10000 nM
56 | CCC1Oc2cc(S(=O)(=O)Nc3cc(Cl)ccc3C)c(Cl)cc2NC1=O (stereo not shown) [BC19215] |  |  | > 10 µM | 1000 to 10000 nM
